The text below walks through data of US12291518B2, “Thyroid hormone receptor agonists and use thereof” (Eccogene Inc., priority 2020, dated 2025).

Where two headings read alike, the source gives them in different places. Some results are limits rather than exact numbers.

The target in one test is T1, THR alpha-LBD (Homo sapiens, UniProt P10827).
T1 construct: except that THR alpha-LBD of a final concentration 0.25 nM was used; purchased Invitrogen PV4687
Put plainly: THR-α Coactivator Peptide Recruitment Assay (LanthaScreen TR-FRET). The class given is biochemical. On the procedure:
(§1) A time-resolved FRET (TR-FRET) assay was used to test representative compounds of the application.
(§2) THR-β Coactivator Peptide Recruitment Assay were conducted by using Invitrogen's LanthaScreen™ TR-FRET Thyroid Receptor beta Assay Kit (Catalog no. PV4686). Binding of an agonist to the nuclear receptor causes a subsequent binding of a coactivator peptide, resulting in fluorescence energy transfer from the labelled nuclear receptor to the proximal coactivator peptide, which reflects the binding affinity of the agonist and the nuclear receptor. The assay was conducted by following the manufacturer's instructions. Briefly, THR beta-LBD (the final concentration is 0.5 nM) was added to the 384-well assay plate containing test compounds, followed by addition of Fluorescein-SRC2-2 coactivator peptide and terbium (Tb)-labeled anti-GST antibody. The final concentration of THR beta-LBD, Fluorescein-SRC2-2 coactivator peptide and terbium (Tb)-labeled anti-GST antibody is 0.5 nM, 0.1 nM and 2 nM, respectively. After a gentle mix and incubation at room temperature for 2 h, the signal was read on the EnVision Multilabel Plate Reader at wavelengths of 520 nm and 495 nm. TR-FRET ratio was calculated by dividing the emission signal at 520 nm and the emission signal at 495 nm, and then was plotted against a sigmoidal dose response curve (four parameters, GraphPad™ Prism 8) to determine the EC50 value.
THR-α Coactivator Peptide Recruitment Assay were conducted by using Invitrogen's LanthaScreen™ TR-FRET Thyroid Receptor alpha Assay Kit (Catalog no. PV4687), following the same method described above except that THR alpha-LBD of a final concentration 0.25 nM was used.

For a further test, the target named is T2, THR beta-LBD (Homo sapiens, UniProt P10828).
T2 construct: THR beta-LBD (the final concentration is 0.5 nM) was added to the 384-well assay plate; purchased Invitrogen PV4686
T2 sequence (P10828 217-461 limits assumed): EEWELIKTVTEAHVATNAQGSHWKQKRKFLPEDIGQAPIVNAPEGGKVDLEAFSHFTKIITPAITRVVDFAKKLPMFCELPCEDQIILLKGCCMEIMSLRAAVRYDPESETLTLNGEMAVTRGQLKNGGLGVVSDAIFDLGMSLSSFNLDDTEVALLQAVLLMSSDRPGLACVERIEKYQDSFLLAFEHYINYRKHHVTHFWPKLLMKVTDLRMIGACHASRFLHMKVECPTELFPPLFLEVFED
Put plainly: THR-β Coactivator Peptide Recruitment Assay (LanthaScreen TR-FRET). Format: biochemical. On the procedure:
as §1, §2

Setting [1] is: TR-FRET coactivator recruitment, THR alpha-LBD 0.25 nM.
[2] abbreviates: TR-FRET coactivator recruitment, THR alpha-LBD 0.25 nM, read-out: THRα EC50.
The mark [3] stands for this setting: TR-FRET coactivator recruitment, THR beta-LBD 0.5 nM.
The mark [4] stands for this setting: TR-FRET coactivator recruitment, THR beta-LBD 0.5 nM, read-out: THRβ EC50.

T1 sequence (P10827 163-410 isoform P10827-2 limits assumed, other chains not shown): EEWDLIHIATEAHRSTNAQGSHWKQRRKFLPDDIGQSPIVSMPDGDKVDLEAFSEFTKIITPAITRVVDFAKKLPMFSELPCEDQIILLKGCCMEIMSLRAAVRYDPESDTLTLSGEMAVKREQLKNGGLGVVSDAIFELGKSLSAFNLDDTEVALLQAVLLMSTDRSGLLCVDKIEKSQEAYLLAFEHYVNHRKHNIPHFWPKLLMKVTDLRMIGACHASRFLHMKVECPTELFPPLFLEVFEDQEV

For the molecule `CNS(=O)(=O)c1cc(Oc2c(Cl)cc(-n3nc(C(F)F)c(=O)[nH]c3=O)cc2Cl)ccc1O` [Compound 13, 5-(2,6-dichloro-4-(6-(difluoromethyl)-3,5-dioxo-4,5-dihydro-1,2,4-triazin-2(3H)-yl)phenoxy)-2-hydroxy-N-methylbenzenesulfonamide], the “THRα Emax” value at THR alpha-LBD (setting [1]) is recorded as “A (85~110)”. For the same molecule, the concentration for a half-maximal effect (EC50) on THR alpha-LBD (setting [2]) and on THR beta-LBD (setting [4]) was less than 2 nM in each case. For the same molecule, the “THRβ Emax” value on THR beta-LBD (setting [3]) was “A (90~110)”.
On to `O=c1[nH]c(=O)n(-c2cc(Cl)c(Oc3ccc(O)c(S(=O)(=O)NC4CC4)c3)c(Cl)c2)nc1C(F)F` [Compound 14, N-cyclopropyl-5-(2,6-dichloro-4-(6-(difluoromethyl)-3,5-dioxo-4,5-dihydro-1,2,4-triazin-2(3H)-yl)phenoxy)-2-hydroxybenzenesulfonamide], for which the “THRα Emax” value at THR alpha-LBD (setting [1]) is on record as “A (85~110)”. Moreover, the EC50 at THR alpha-LBD (setting [2]) and on THR beta-LBD (setting [4]) was less than 2 nM in each case. Besides, at THR beta-LBD (setting [3]), the “THRβ Emax” value is listed as “A (90~110)”.
Consider `O=c1[nH]c(=O)n(-c2cc(Cl)c(Oc3ccc(O)c([S@TB3](=O)(=O)N4CCOCC4)c3)c(Cl)c2)nc1C(F)F` [Compound 15, 2-(3,5-dichloro-4-(4-hydroxy-3-(morpholinosulfonyl)phenoxy)phenyl)-6-(difluoromethyl)-1,2,4-triazine-3,5(2H,4H)-dione], for which the “THRα Emax” value at THR alpha-LBD (setting [1]) is reported as “B (40~85)”. The EC50 on THR alpha-LBD (setting [2]) and on THR beta-LBD (setting [4]) was less than 2 nM each time. Besides, the “THRβ Emax” value at THR beta-LBD (setting [3]) is on record as “B (75~90)”.
Turning to `O=c1[nH]c(=O)n(-c2cc(Cl)c(Oc3ccc(O)c(S(=O)(=O)N4CCC(O)CC4)c3)c(Cl)c2)nc1C(F)F` [Compound 16, 2-(3,5-dichloro-4-(4-hydroxy-3-((4-hydroxypiperidin-1-yl)sulfonyl)phenoxy)phenyl)-6-(difluoromethyl)-1,2,4-triazine-3,5(2H,4H)-dione], the “THRα Emax” value at THR alpha-LBD (setting [1]) is reported as “A (85~110)”. Moreover, the EC50 at THR alpha-LBD (setting [2]) was 2 to 200 nM; on THR beta-LBD (setting [4]), less than 2 nM. Moreover, the “THRβ Emax” value on THR beta-LBD (setting [3]) is “B (75~90)”.
For `N#CC1(NS(=O)(=O)c2cc(Oc3c(Cl)cc(-n4nc(C(F)F)c(=O)[nH]c4=O)cc3Cl)ccc2O)CC1` [Compound 17, N-(1-cyanocyclopropyl)-5-(2,6-dichloro-4-(6-(difluoromethyl)-3,5-dioxo-4,5-dihydro-1,2,4-triazin-2(3H)-yl)phenoxy)-2-hydroxybenzenesulfonamide], in that order: “A (85~110)”, 2 to 200 nM, less than 2 nM and “A (90~110)”.
On to `O=c1[nH]c(=O)n(-c2cc(Cl)c(Oc3ccc(O)c(S(=O)(=O)N[C@H]4C[C@H](C(=O)NC5CC5)C4)c3)c(Cl)c2)nc1C(F)F` [Compound 18], for which the “THRα Emax” value at THR alpha-LBD (setting [1]) is “B (40~85)”. For the same molecule, the EC50 on THR alpha-LBD (setting [2]) fell in the range of 200 to 1000 nM; at THR beta-LBD (setting [4]) it was 2 to 20 nM. In addition, the “THRβ Emax” value at THR beta-LBD (setting [3]) is “B (75~90)”.
For `O=c1[nH]c(=O)n(-c2cc(Cl)c(Oc3ccc(O)c(S(=O)(=O)NC4CC4)c3)c(Cl)c2)nc1C(F)(F)F` [Compound 19, N-cyclopropyl-5-[2,6-dichloro-4-[3,5-dioxo-6-(trifluoromethyl)-1,2,4-triazin-2-yl]phenoxy]-2-hydroxy-benzenesulfonamide], in that order: “A (85~110)”, 2 to 200 nM, less than 2 nM and “A (90~110)”.
Regarding `CNS(=O)(=O)c1cc(Oc2c(Cl)cc(-n3nc(C(F)(F)F)c(=O)[nH]c3=O)cc2Cl)ccc1O` [Compound 20, 5-(2,6-dichloro-4-(3,5-dioxo-6-(trifluoromethyl)-4,5-dihydro-1,2,4-triazin-2(3H)-yl)phenoxy)-2-hydroxy-N-methylbenzenesulfonamide], the “THRα Emax” value at THR alpha-LBD (setting [1]) was “A (85~110)”. The figures for the EC50 at THR alpha-LBD (setting [2]) and at THR beta-LBD (setting [4]) were 2 to 200 nM and 2 to 20 nM, respectively. Moreover, the “THRβ Emax” value at THR beta-LBD (setting [3]) was “A (90~110)”.
As for `O=c1[nH]c(=O)n(-c2cc(Cl)c(Oc3ccc(O)c(S(=O)(=O)N4CCC(F)(F)CC4)c3)c(Cl)c2)nc1C(F)(F)F` [Compound 21, 2-(3,5-dichloro-4-(3-((4,4-difluoropiperidin-1-yl)sulfonyl)-4-hydroxyphenoxy)phenyl)-6-(trifluoromethyl)-1,2,4-triazine-3,5(2H,4H)-dione], the “THRα Emax” value at THR alpha-LBD (setting [1]) is given as “B (40~85)”. Further, the figures for the concentration for a half-maximal effect (EC50) on THR alpha-LBD (setting [2]) and on THR beta-LBD (setting [4]) were 2 to 200 nM and 2 to 20 nM, respectively. Further, the “THRβ Emax” value at THR beta-LBD (setting [3]) is on record as “A (90~110)”.
As for `CNC(=O)C1(NS(=O)(=O)c2cc(Oc3c(Cl)cc(-n4nc(C(F)F)c(=O)[nH]c4=O)cc3Cl)ccc2O)CC1` [Compound 22, 1-[[5-[2,6-dichloro-4-[6-(difluoromethyl)-3,5-dioxo-1,2,4-triazin-2-yl]phenoxy]-2-hydroxy-phenyl]sulfonylamino]-N-methyl-cyclopropane carboxamide], the “THRα Emax” value on THR alpha-LBD (setting [1]) is reported as “B (40~85)”. In addition, the concentration giving a half-maximal response (EC50) at THR alpha-LBD (setting [2]) lay in the range of 200 to 1000 nM; on THR beta-LBD (setting [4]) it was 2 to 20 nM. For the same molecule, the “THRβ Emax” value at THR beta-LBD (setting [3]) is “B (75~90)”.
Regarding `NC(=O)C1(NS(=O)(=O)c2cc(Oc3c(Cl)cc(-n4nc(C(F)F)c(=O)[nH]c4=O)cc3Cl)ccc2O)CC1` [Compound 24, 1-[[5-[2,6-dichloro-4-[6-(difluoromethyl)-3,5-dioxo-1,2,4-triazin-2-yl]phenoxy]-2-hydroxy-phenyl]sulfonylamino]cyclopropanecarboxamide], the “THRα Emax” value at THR alpha-LBD (setting [1]) is recorded as “A (85~110)”. The values for the EC50 at THR alpha-LBD (setting [2]) and at THR beta-LBD (setting [4]) were 2 to 200 nM and less than 2 nM, respectively. Besides, at THR beta-LBD (setting [3]), the “THRβ Emax” value is “A (90~110)”.
For `CNC(=O)C1(N[S@SP3](=O)(=O)c2cc(Oc3c(Cl)cc(-n4nc(C(F)(F)F)c(=O)[nH]c4=O)cc3Cl)ccc2O)CC1` [Compound 25, 1-((5-(2,6-dichloro-4-(3,5-dioxo-6-(trifluoromethyl)-4,5-dihydro-1,2,4-triazin-2(3H)-yl)phenoxy)-2-hydroxyphenyl)sulfonamido)-N-methylcyclopropane-1-carboxamide], the “THRα Emax” value on THR alpha-LBD (setting [1]) is “C (<40)”. For the same molecule, the results for the EC50 on THR alpha-LBD (setting [2]) and on THR beta-LBD (setting [4]) were greater than 1000 nM and 20 to 100 nM, respectively. On THR beta-LBD (setting [3]), the “THRβ Emax” value is on record as “B (75~90)”.
As for `N#CC1CC(N[S@SP3](=O)(=O)c2cc(Oc3c(Cl)cc(-n4nc(C(F)F)c(=O)[nH]c4=O)cc3Cl)ccc2O)C1` (stereo not shown) [Compound 26, N-(3-cyanocyclobutyl)-5-[2,6-dichloro-4-[6-(difluoromethyl)-3,5-dioxo-1,2,4-triazin-2-yl]phenoxy]-2-hydroxy-benzenesulfonamide], the EC50 on THR alpha-LBD is 2 to 200 nM; at THR beta-LBD it was less than 2 nM. Further, at THR alpha-LBD (setting [1]), the “THRα Emax” value is on record as “A (85~110)”. The “THRβ Emax” value on THR beta-LBD (setting [3]) was “A (90~110)”.
As to `O=c1[nH]c(=O)n(-c2cc(Cl)c(Oc3ccc(O)c(S(=O)(=O)N4CCC(F)(F)CC4)c3)c(Cl)c2)nc1C(F)F` [Compound 27, 2-[3,5-dichloro-4-[3-[(4,4-difluoro-1-piperidyl)sulfonyl]-4-hydroxy-phenoxy]phenyl]-6-(difluoromethyl)-1,2,4-triazine-3,5-dione], the “THRα Emax” value on THR alpha-LBD (setting [1]) is “A (85~110)”. For the same molecule, the EC50 on THR alpha-LBD (setting [2]) and at THR beta-LBD (setting [4]) was less than 2 nM throughout. Besides, at THR beta-LBD (setting [3]), the “THRβ Emax” value was “B (75~90)”.
For `O=c1[nH]c(=O)n(-c2cc(Cl)c(Oc3ccc(O)c(S(=O)(=O)N4CCC4)c3)c(Cl)c2)nc1C(F)F` [Compound 28, 2-(4-(3-(azetidin-1-ylsulfonyl)-4-hydroxyphenoxy)-3,5-dichlorophenyl)-6-(difluoromethyl)-1,2,4-triazine-3,5(2H,4H)-dione], the “THRα Emax” value at THR alpha-LBD (setting [1]) is listed as “A (85~110)”. Moreover, the EC50 on THR alpha-LBD (setting [2]) and at THR beta-LBD (setting [4]) was less than 2 nM in each case. The “THRβ Emax” value on THR beta-LBD (setting [3]) is listed as “B (75~90)”.
For the molecule `O=c1[nH]c(=O)n(-c2cc(Cl)c(Oc3ccc(O)c(S(=O)(=O)N[C@H]4CCOC4)c3)c(Cl)c2)nc1C(F)F` [Compound 29, (S)-5-(2,6-dichloro-4-(6-(difluoromethyl)-3,5-dioxo-4,5-dihydro-1,2,4-triazin-2(3H)-yl)phenoxy)-2-hydroxy-N-(tetrahydrofuran-3-yl)benzenesulfonamide], the “THRα Emax” value on THR alpha-LBD (setting [1]) is listed as “A (85~110)”. The EC50 is 2 to 200 nM at THR alpha-LBD (setting [2]) and less than 2 nM at THR beta-LBD (setting [4]). Besides, on THR beta-LBD (setting [3]), the “THRβ Emax” value is recorded as “A (90~110)”.
